# Assay results taken from patent US20250360132A1, “METHODS OF ADMINISTERING MYOSIN INHIBITORS” (MYOKARDIA, INC., priority 2022, published 2025).
# Columns and labels:
# [1] = molecular target: T1, CYP2C19 (Homo sapiens, UniProt P33261); test: Metabolism, contribution of CYP2C19; type: in vitro ADME
# Text: (§1) Mavacamten is extensively metabolized, primarily through CYP2C19 (74%), CYP3A4 (18%), and CYP2C9 (8%).
# (§2) Statement of Purpose: Mavacamten is a first-in-class, selective, allosteric, and reversible cardiac myosin inhibitor in development for the treatment of adults with symptomatic obstructive hypertrophic cardiomyopathy. Mavacamten is hepatically metabolized predominantly via CYP2C19 (74%), CYP3A4 (18%) and CYP2C9 (8%). A previously developed fit-for-purpose physiologically based pharmacokinetic (PBPK) model was applied to explore the induction effects of a strong CYP3A4/CYP2C19 inducer-rifampin, as well as a strong CYP3A4 inducer-carbamazepine, on mavacamten exposures.
# [2] = system: pregnant rabbits; test: Embryo-fetal development study in rabbits; type: in vivo, rabbit
# Experimental: Visceral findings consisted of malformations of the great vessels (dilatation of pulmonary trunk and/or aortic arch). Skeletal malformations consisted of higher incidences of fused sternebrae at ≥1.2 mg/kg/day. Plasma exposure (AUC) at the no-effect dose for embryo-fetal development in rabbits is 0.4 times the exposure in humans at the MRHD.
# [3] = system: adults with symptomatic NYHA class II and III obstructive HCM; test: EXPLORER-HCM Phase 3, double-blind, randomized, placebo-controlled trial; type: in vivo, human
# Experimental: The safety of MAVACAMTEN was evaluated in EXPLORER-HCM, a Phase 3, double-blind, randomized, placebo-controlled trial. Of the 251 adults with obstructive HCM, 123 patients were treated with MAVACAMTEN 2.5-15 mg daily and 128 were treated with placebo.
# The efficacy of MAVACAMTEN was evaluated in EXPLORER-HCM (NCT-03470545) a Phase 3, double-blind, randomized, placebo-controlled, multicenter, international, parallel-group trial in 251 adults with symptomatic NYHA class II and III obstructive HCM, LVEF ≥55%, and Valsalva LVOT peak gradient ≥50 mmHg at rest or with provocation.
# Patients on dual therapy with beta blocker and calcium channel blocker treatment or monotherapy with disopyramide or ranolazine were excluded. Patients with a known infiltrative or storage disorder causing cardiac hypertrophy that mimicked obstructive HCM, such as Fabry disease, amyloidosis, or Noonan syndrome with left ventricular hypertrophy, were also excluded.
# Patients were randomized in a 1:1 ratio to receive either a starting dose of 5 mg of MAVACAMTEN or placebo once daily for 30 weeks. Treatment assignment was stratified by baseline NYHA functional class, baseline use of beta blockers, and type of ergometer (treadmill or exercise bicycle).
# All patients were initiated on MAVACAMTEN 5 mg (or matching placebo) once daily, and the dose was periodically adjusted to optimize patient response (decrease in LVOT gradient with Valsalva maneuver) and maintain LVEF ≥50%. The dose was also informed by plasma concentrations of MAVACAMTEN.
# The primary composite functional endpoint, assessed at 30 weeks, was defined as the proportion of patients who achieved either improvement of […] (pVO2) by ≥1.5 mL/kg/min plus improvement in NYHA class by at least 1 or improvement of pVO2 by ≥3.0 mL/kg/min plus no worsening in NYHA class.
# The treatment effects of MAVACAMTEN on LVOT obstruction, functional capacity, and health status were assessed by change from baseline through Week 30 in post-exercise LVOT peak gradient, change in pVO2, proportion of patients with improvement in NYHA class, Kansas City Cardiomyopathy Questionnaire-23 (KCCQ-23) Clinical Summary Score (CSS), and Hypertrophic Cardiomyopathy Symptom Questionnaire (HCMSQ) Shortness of Breath (SoB) domain score.
# Missing data were not imputed to summarize the baseline and change from baseline to Week 30 values. Difference in mean change from baseline between treatment groups was estimated using a mixed model for repeated measures.
# [4] = molecular target: CYP2C9 (Homo sapiens, UniProt P11712); test: Metabolism, contribution of CYP2C9; type: in vitro ADME
# Chain of CYP2C9 (P11712 whole entry): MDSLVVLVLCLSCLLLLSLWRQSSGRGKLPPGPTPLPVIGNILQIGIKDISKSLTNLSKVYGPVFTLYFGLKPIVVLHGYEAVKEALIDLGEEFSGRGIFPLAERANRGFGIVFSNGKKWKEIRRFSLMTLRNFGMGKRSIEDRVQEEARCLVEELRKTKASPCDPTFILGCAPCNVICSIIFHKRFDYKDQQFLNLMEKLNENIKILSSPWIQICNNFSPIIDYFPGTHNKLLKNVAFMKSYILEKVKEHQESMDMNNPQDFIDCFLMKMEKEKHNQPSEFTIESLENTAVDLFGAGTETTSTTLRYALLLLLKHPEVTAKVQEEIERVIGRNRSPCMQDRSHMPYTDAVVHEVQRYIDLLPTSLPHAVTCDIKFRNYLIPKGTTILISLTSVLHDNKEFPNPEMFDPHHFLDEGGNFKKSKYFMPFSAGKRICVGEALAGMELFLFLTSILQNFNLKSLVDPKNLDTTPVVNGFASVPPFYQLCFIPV
# Text: as §1, §2
# [5] = molecular target: CYP3A4 (Homo sapiens, UniProt P08684); test: Clinical DDI with moderate CYP3A4 inhibitor verapamil; type: in vivo; set-up: host or cells: in silico (Simcyp v19 where stated); settings: mavacamten 25 mg with verapamil sustained release 240 mg; CYP2C19 IMs and NMs
# Chain of CYP3A4 (P08684 whole entry): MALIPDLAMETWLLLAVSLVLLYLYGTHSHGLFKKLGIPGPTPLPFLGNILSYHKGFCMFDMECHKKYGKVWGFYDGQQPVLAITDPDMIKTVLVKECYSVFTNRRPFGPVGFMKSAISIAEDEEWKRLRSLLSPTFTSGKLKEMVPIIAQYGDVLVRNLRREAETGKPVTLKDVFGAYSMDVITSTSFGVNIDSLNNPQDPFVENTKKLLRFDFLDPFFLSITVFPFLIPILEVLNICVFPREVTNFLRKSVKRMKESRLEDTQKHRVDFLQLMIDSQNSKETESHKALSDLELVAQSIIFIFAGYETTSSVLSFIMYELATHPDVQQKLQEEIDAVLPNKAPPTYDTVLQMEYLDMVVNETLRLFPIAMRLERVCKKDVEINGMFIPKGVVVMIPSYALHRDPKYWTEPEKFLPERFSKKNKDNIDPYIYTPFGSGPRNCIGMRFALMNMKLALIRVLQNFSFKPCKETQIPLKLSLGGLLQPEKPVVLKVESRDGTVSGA
# [6] = molecular target: P-gp (Homo sapiens, UniProt P08183); test: In vitro transporter inhibition; type: in vitro ADME
# Chain of P-gp (P08183 whole entry): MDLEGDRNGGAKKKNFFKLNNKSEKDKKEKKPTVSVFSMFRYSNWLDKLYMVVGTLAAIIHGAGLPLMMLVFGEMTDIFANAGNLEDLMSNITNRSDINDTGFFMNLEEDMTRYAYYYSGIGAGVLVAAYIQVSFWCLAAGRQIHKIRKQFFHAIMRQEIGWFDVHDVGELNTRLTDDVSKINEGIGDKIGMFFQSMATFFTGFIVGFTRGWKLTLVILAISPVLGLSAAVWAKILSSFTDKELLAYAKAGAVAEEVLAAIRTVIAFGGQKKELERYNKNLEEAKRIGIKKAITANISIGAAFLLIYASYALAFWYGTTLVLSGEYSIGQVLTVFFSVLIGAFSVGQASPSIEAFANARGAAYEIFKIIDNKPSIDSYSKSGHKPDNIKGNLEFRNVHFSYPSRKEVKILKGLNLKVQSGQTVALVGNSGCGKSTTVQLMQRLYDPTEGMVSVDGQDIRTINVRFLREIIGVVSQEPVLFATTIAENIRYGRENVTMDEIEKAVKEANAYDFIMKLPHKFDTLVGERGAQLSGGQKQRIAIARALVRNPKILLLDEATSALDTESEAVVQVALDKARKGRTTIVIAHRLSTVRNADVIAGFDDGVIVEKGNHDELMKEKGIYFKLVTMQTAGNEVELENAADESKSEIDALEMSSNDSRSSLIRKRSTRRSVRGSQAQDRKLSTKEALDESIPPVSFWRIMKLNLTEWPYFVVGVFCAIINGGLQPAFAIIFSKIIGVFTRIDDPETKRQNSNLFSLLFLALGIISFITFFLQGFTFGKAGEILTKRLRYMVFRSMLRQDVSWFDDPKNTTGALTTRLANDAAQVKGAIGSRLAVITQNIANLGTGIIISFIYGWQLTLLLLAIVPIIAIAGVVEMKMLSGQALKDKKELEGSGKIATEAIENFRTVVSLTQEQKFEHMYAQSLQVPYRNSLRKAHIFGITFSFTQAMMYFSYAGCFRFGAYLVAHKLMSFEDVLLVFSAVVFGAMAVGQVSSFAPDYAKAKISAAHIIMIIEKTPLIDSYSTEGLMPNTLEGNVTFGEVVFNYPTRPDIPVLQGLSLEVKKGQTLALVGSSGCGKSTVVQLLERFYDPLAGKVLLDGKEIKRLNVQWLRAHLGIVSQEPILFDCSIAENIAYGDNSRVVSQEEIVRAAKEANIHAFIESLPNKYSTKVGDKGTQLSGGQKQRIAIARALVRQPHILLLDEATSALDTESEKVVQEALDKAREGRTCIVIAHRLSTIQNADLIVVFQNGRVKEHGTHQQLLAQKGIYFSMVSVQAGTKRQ
# [7] = molecular target: T1, CYP2C19; test: Clinical DDI with weak CYP2C19 inhibitor omeprazole; type: in vivo; set-up: host or cells: in silico (Simcyp v19); settings: mavacamten 15 mg with omeprazole 20 mg once daily; healthy CYP2C19 NMs and RMs
# T1 sequence (P33261 whole entry): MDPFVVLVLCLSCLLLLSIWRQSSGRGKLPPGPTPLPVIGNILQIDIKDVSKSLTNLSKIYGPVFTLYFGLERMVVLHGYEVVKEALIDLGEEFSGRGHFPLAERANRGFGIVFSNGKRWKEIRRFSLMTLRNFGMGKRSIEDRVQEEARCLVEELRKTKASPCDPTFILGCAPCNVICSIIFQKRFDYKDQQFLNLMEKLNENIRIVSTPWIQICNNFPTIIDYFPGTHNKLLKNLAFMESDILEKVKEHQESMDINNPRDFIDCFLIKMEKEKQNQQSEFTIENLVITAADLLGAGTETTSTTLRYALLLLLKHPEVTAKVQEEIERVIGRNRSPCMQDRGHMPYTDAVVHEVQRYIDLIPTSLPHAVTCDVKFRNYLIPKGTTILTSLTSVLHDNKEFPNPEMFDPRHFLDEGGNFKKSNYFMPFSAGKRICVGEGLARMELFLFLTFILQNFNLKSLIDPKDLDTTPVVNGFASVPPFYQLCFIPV
structure (smiles),measurement,setting,value
"CC(C)n1c(=O)cc(N[C@@H](C)c2ccccc2)[nH]c1=O [mavacamten, (S)-3-Isopropyl-6-((1-phenylethyl)amino)pyrimidine-2,4(1H,3H)-dione]",Metabolism through CYP2C19,[1],74%
same,Embryo-fetal findings (risk summary),"[2]; both rabbits and rats, dose exposures similar to that at the MRHD",increases in visceral and skeletal malformations
same,Doses at which fetal malformations (visceral and skeletal) were increased,"[2]; oral, period of organogenesis",≥ 1.2 mg/kg/day
same,Plasma exposure (AUC) at the no-effect dose for embryo-fetal development vs humans at the MRHD,[2]; rabbits,0.4 times
same,Subgroup analysis of the primary composite functional endpoint,[3]; FIG. 17,consistently favored MAVACAMTEN across all subgroups analyzed
same,"Adverse reaction: syncope, patients","[3]; MAVACAMTEN 2.5-15 mg daily, N=123, placebo 2%",6%
same,"Adverse reaction: dizziness, patients","[3]; MAVACAMTEN 2.5-15 mg daily, N=123, placebo 18%",27%
same,Improvement across secondary endpoints vs placebo,[3]; Week 30,greater improvement compared to the placebo group across all secondary endpoints
same,"NYHA Class improved ≥1, difference vs placebo",[3]; Week 30,34%
same,"Total responders, difference vs placebo (95% CI)",[3]; Week 30,"19% (9, 30)"
same,"pVO2 ≥1.5 mL/kg/min and decreased NYHA, difference vs placebo (95% CI)",[3]; Week 30,"19% (9, 30)"
same,"pVO2 ≥3 mL/kg/min and NYHA not increased, difference vs placebo (95% CI)",[3]; Week 30,"13% (3, 22)"
same,"Change from baseline pVO2 ≥1.5 mL/kg/min and decreased NYHA, number","[3]; Week 30, N=123",41
same,"Change from baseline pVO2 ≥3 mL/kg/min and NYHA not increased, number","[3]; Week 30, N=123",29
same,Number with NYHA Class improved ≥1,"[3]; Week 30, N=123",80
same,"Primary composite functional endpoint, total responders, number","[3]; Week 30, N=123",45
same,"Primary composite functional endpoint, total responders, percent","[3]; Week 30, N=123, placebo 17%",37%
same,"KCCQ-23 CSS, change from baseline, mean","[3]; Week 30, n=99, placebo 4",14
same,"HCMSQ SoB, change from baseline, mean","[3]; Week 30, n=108, placebo −1",−3
same,"KCCQ-23 PL, change from baseline, mean","[3]; Week 30, placebo 4",15
same,"KCCQ-23 TSS, change from baseline, mean","[3]; Week 30, placebo 5",12
same,"Change from baseline pVO2 ≥3 mL/kg/min and NYHA not increased, percent","[3]; Week 30, placebo 11%",23%
same,"Change from baseline pVO2 ≥1.5 mL/kg/min and decreased NYHA, percent","[3]; Week 30, placebo 14%",33%
same,Percent with NYHA Class improved ≥1,"[3]; Week 30, placebo 31%",(65%)
same,LVEF outcome after interruption in patients with LVEF <50%,[3]; all 7 patients,LVEF recovered following interruption
same,Benefit by background beta blocker therapy,[3]; attenuated improvement in pVO2,smaller in patients on background beta blocker therapy
same,"Post-Exercise LVOT gradient, difference vs placebo",[3]; baseline to Week 30,−35 mmHg
same,"pVO2, difference vs placebo",[3]; baseline to Week 30,1.4 mL/kg/min
same,"Change in pVO2, mean","[3]; baseline to Week 30, placebo −0.1",1.4 mL/kg/min
same,"Change in Post-Exercise LVOT gradient, mean","[3]; baseline to Week 30, placebo −10",−47 mmHg
same,patients who temporarily interrupted their dose due to LVEF <50%,[3]; in vivo,Three
same,patients whose LVEF reduction to <50% was asymptomatic,[3]; of the 7 MAVACAMTEN patients,3
same,mean (SD) absolute change from baseline in LVEF,"[3]; over the 30-week treatment period, placebo 0% (7)",-4% (8)
same,"Syncope leading to discontinuation, patients",[3]; patients receiving MAVACAMTEN,0.8%
same,onset of reduction in LVOT gradient,[3]; sustained throughout the 30-week trial,reductions in mean resting and provoked (Valsalva) LVOT gradient by Week 4
same,"patients with reversible reductions in LVEF to <50%, number","[3]; while on treatment, N=123",7
same,"patients with reversible reductions in LVEF to <50%, percent","[3]; while on treatment, placebo 2%",6%
same,Metabolism through CYP2C9,[4],8%
same,Increase in mavacamten AUCinf,[5],15%
same,Increase in mavacamten Cmax,[5],52%
same,Inhibition of P-gp,[6],does not inhibit
same,Increase in mavacamten AUCinf,[7],48%
